Data taken from patent publication US10770169B2, “Method of providing a treatment to a subject based on a dynamic pathway map” (THE REGENTS OF THE UNIVERSITY OF CALIFORNIA, priority 2010, dated 2020).
Read-outs that look alike come from different tables or passages of the source.

System: panel of 55 breast cancer cell lines
Test: Cell growth inhibition assay (Cell Titer Glo, 72 h, 9 doses; GI50, TGI, LC50)
Type: cell-based, human
Details: Homo sapiens, read-out: GI50 (converted)

## COC1=C2C[C@@H](C)C[C@H](OC)[C@H](O)[C@@H](C)/C=C(\C)[C@H](OC(N)=O)[C@@H](OC)/C=C\C=C(/C)C(=O)NC(=CC1=O)C2=O [Geldanamycin]
600MPE cell line, censored GI50 values
  GI50: 38.9 nM
AU565, AU565 cell line, censored GI50 values
  GI50: 51.3 nM
AU565, cell line AU565
  GI50: 51.3 nM
BT-474, BT474 cell line, censored GI50 values
  GI50: 14.5 nM
BT-474, cell line BT474
  GI50: 14.5 nM
BT-483, BT483 cell line, censored GI50 values
  GI50: 145 nM
BT-483, cell line BT483
  GI50: 145 nM
BT-549, BT549 cell line, censored GI50 values
  GI50: 5.5 nM
BT-549, cell line BT549
  GI50: 5.5 nM
CAMA-1, CAMA1 cell line, censored GI50 values
  GI50: 79.4 nM
CAMA-1, cell line CAMA1
  GI50: 79.4 nM
HCC38, HCC38 cell line, censored GI50 values
  GI50: 28.8 nM
HCC38, cell line HCC38
  GI50: 28.8 nM
HCC70, HCC70 cell line, censored GI50 values
  GI50: 93.3 nM
HCC70, cell line HCC70
  GI50: 93.3 nM
HCC202, HCC202 cell line, censored GI50 values
  GI50: 1.48 nM
HCC202, cell line HCC202
  GI50: 1.48 nM
HCC1143, HCC1143 cell line, censored GI50 values
  GI50: 81.3 nM
HCC1143, cell line HCC1143
  GI50: 81.3 nM
HCC1187, HCC1187 cell line, censored GI50 values
  GI50: 15.8 nM
HCC1187, cell line HCC1187
  GI50: 15.8 nM
HCC1395, HCC1395 cell line, censored GI50 values
  GI50: 61.7 nM
HCC1395, cell line HCC1395
  GI50: 61.7 nM
HCC1419, HCC1419 cell line, censored GI50 values
  GI50: 32.4 nM
HCC1419, cell line HCC1419
  GI50: 32.4 nM
HCC1428, HCC1428 cell line, censored GI50 values
  GI50: 31.6 nM
HCC1428, cell line HCC1428
  GI50: 31.6 nM
HCC1500, HCC1500 cell line, censored GI50 values
  GI50: 155 nM
HCC1500, cell line HCC1500
  GI50: 155 nM
HCC1806, HCC1806 cell line, censored GI50 values
  GI50: 75.9 nM
HCC1806, cell line HCC1806
  GI50: 75.9 nM
HCC1937, HCC1937 cell line, censored GI50 values
  GI50: 29.5 nM
HCC1937, cell line HCC1937
  GI50: 29.5 nM
HCC1954, HCC1954 cell line, censored GI50 values
  GI50: 7.24 nM
HCC1954, cell line HCC1954
  GI50: 7.24 nM
HCC2185 cell line, censored GI50 values
  GI50: 18.2 nM
HCC3153 cell line, censored GI50 values
  GI50: 67.6 nM
LY2 cell line, censored GI50 values
  GI50: 100 nM
MCF7, MCF7 cell line, censored GI50 values
  GI50: 240 nM
MCF7, cell line MCF7
  GI50: 240 nM
MDA-MB-134-VI, MDAMB134VI cell line, censored GI50 values
  GI50: 20.9 nM
MDA-MB-175-VII, MDAMB175VII cell line, censored GI50 values
  GI50: 17.8 nM
MDA-MB-231, MDAMB231 cell line, censored GI50 values
  GI50: 28.8 nM
MDA-MB-231, cell line MDAMB231
  GI50: 28.8 nM
MDA-MB-361, MDAMB361 cell line, censored GI50 values
  GI50: 25.7 nM
MDA-MB-361, cell line MDAMB361
  GI50: 25.7 nM
MDA-MB-415, MDAMB415 cell line, censored GI50 values
  GI50: 57.5 nM
MDA-MB-415, cell line MDAMB415
  GI50: 57.5 nM
MDA-MB-436, MDAMB436 cell line, censored GI50 values
  GI50: 148 nM
MDA-MB-436, cell line MDAMB436
  GI50: 148 nM
MDA-MB-453, MDAMB453 cell line, censored GI50 values
  GI50: 19.5 nM
MDA-MB-453, cell line MDAMB453
  GI50: 19.5 nM
MDA-MB-468, MDAMB468 cell line, censored GI50 values
  GI50: 27.5 nM
MDA-MB-468, cell line MDAMB468
  GI50: 27.5 nM
SK-BR-3, SKBR3 cell line, censored GI50 values
  GI50: 16.2 nM
SK-BR-3, cell line SKBR3
  GI50: 16.2 nM
SUM52PE, SUM52PE cell line, censored GI50 values
  GI50: 12 nM
SUM52PE, cell line SUM52PE
  GI50: 12 nM
SUM149PT, SUM149PT cell line, censored GI50 values
  GI50: 6.03 nM
SUM149PT, cell line SUM149PT
  GI50: 6.03 nM
SUM185PE, SUM185PE cell line, censored GI50 values
  GI50: 20 nM
SUM185PE, cell line SUM185PE
  GI50: 20 nM
SUM1315MO2, SUM1315MO2 cell line, censored GI50 values
  GI50: 38 nM
SUM-159-PT, SUM159PT cell line, censored GI50 values
  GI50: 6.31 nM
SUM-159-PT, cell line SUM159PT
  GI50: 6.31 nM
UACC-812, UACC812 cell line, censored GI50 values
  GI50: 12.3 nM
UACC-812, cell line UACC812
  GI50: 12.3 nM
UACC-893, UACC893 cell line, censored GI50 values
  GI50: 11 nM
UACC-893, cell line UACC893
  GI50: 11 nM
ZR-75-1, ZR751 cell line, censored GI50 values
  GI50: 117 nM
ZR-75-1, cell line ZR751
  GI50: 117 nM
ZR-75-30, ZR7530 cell line, censored GI50 values
  GI50: 7.08 nM
ZR-75-30, cell line ZR7530
  GI50: 7.08 nM
ZR-75B, ZR75B cell line, censored GI50 values
  GI50: 93.3 nM
ZR-75B, cell line ZR75B
  GI50: 93.3 nM
Cell line 600MPE
  GI50: 38.9 nM
Cell line HCC2185
  GI50: 18.2 nM
Cell line HCC3153
  GI50: 67.6 nM
Cell line LY2
  GI50: 100 nM
Cell line MDAMB134V
  GI50: 20.9 nM
Cell line MDAMB175V
  GI50: 17.8 nM
Cell line SUM1315MO
  GI50: 38 nM
